pKi: −log10 of the molar value.
target: T1, hCRTH2 (Homo sapiens, UniProt Q9Y5Y4); design: expressed in transfected cells; host or cells: HEK (human embryonic kidney) cells expressing hCRTH2; settings: Radioligand Binding Assay B; 0.7 nM [3H]PGD2, HEK-hCRTH2 membranes
T1 sequence (Q9Y5Y4 1-395): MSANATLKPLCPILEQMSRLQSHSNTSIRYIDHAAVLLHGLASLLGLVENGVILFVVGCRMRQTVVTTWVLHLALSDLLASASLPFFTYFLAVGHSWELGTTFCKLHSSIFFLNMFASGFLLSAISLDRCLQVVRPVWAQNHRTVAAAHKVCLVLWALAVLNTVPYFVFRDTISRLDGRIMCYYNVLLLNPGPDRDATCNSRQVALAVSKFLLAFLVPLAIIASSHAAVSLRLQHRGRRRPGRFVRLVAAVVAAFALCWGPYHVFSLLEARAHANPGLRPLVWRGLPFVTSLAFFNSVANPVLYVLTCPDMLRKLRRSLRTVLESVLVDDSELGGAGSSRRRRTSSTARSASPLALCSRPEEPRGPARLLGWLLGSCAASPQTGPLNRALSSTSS
Protocol: The filters were then washed with 4 mL of the same buffer and residual radioligand bound to the filter was determined by liquid scintillation counting following equilibration in 25 μl Ultima Gold F™ (Unifilter) (Packard).

pKi	SMILES
8.57	O=C(O)CCC(=O)N(C1CC1)[C@@H]1c2ccc(F)cc2N(C(=O)OCc2ccccc2)[C@@H]2CCC[C@@H]21 (racemic) [compound 16, 4-[{cis,cis-4-[(Benzyloxy)carbonyl]-6-fluoro-2,3,3a,4,9,9a-hexahydro-1H-cyclopenta[b]quinolin-9-yl}(cyclopropyl)amino]-4-oxobutanoic acid]
6.91	CCN(C(=O)CCC(=O)O)C1c2ccccc2N(C(=O)c2cccnc2)C2CCCC12 (racemic) [13E, 4-{ethyl[cis,cis-4-(pyridin-3-ylcarbonyl)-2,3,3a,4,9,9a-hexahydro-1H-cyclopenta[b]quinolin-9-yl]amino}-4-oxobutanoic acid]

same assay, conditions: Radioligand Binding Assay B; Table B, rated A-D

SMILES	pKi
CN(C(=O)CCCC(=O)O)C1c2ccccc2N(C(=O)c2ccccc2)C2CCCC12 (racemic) [17N]	5.12 to 6.70
O=C(O)CCC(=O)N(C1CC1)[C@@H]1c2ccccc2N(C(=O)c2ccccc2)[C@@H]2CCC[C@@H]21 (racemic) [compound 14, 4-[[cis,cis-4-Benzoyl-2,3,3a,4,9,9a-hexahydro-1H-cyclopenta[b]quinolin-9-yl](cyclopropyl)amino]-4-oxobutanoic acid]	7.70 to 8.29
O=C(O)CCC(=O)N(C1CC1)[C@@H]1c2ccccc2N(c2nnc(Cc3ccccc3)o2)[C@@H]2CCC[C@@H]21 (racemic) [compound 36, 4-{[cis-4-(5-Benzyl-1,3,4-oxadiazol-2-yl)-2,3,3a,4,9,9a-hexahydro-1H-cyclopenta[b]quinolin-9-yl](cyclopropyl)amino}-4-oxobutanoic acid]	6.70 to 7.70
O=C(O)CCC(=O)N(C1CC1)C1c2ccccc2N(C(=O)OCc2ccncc2)C2CCCC21 (racemic) [21J, 4-(cyclopropyl{cis, cis-4-[(pyridin-4-ylmethoxy)carbonyl]-2,3,3a,4,9,9a-hexahydro-1H-cyclopenta[b]quinolin-9-yl}amino)-4-oxobutanoic acid]	5.12 to 6.70
O=C(O)CCC(=O)N(C1CC1)C1c2ccccc2N(C(=O)n2ccnc2)C2CCCC21 (racemic) [23B, 4-{cyclopropyl[cis, cis-4-(1H-imidazol-1-ylcarbonyl)-2,3,3a,4,9,9a-hexahydro-1H-cyclopenta[b]quinolin-9-yl]amino}-4-oxobutanoic acid]	6.70 to 7.70
O=C(O)CCC(=O)N(C1CC1)C1c2ccccc2N(C(=O)OCc2ccccc2F)C2CCCC21 (racemic) [21D, 4-{cyclopropyl[cis, cis-4-{[(2-fluorobenzyl)oxy]carbonyl}-2,3,3a,4,9,9a-hexahydro-1H-cyclopenta[b]quinolin-9-yl]amino}-4-oxobutanoic acid]	6.70 to 7.70
O=C(O)CCC(=O)N(C1CC1)C1c2ccccc2N(C(=O)C2CC2)C2CCCC21 (racemic) [14G, 4-{cyclopropyl[cis,cis-4-(cyclopropylcarbonyl)-2,3,3a,4,9,9a-hexahydro-1H-cyclopenta[b]quinolin-9-yl]amino}-4-oxobutanoic acid]	6.70 to 7.70

Next, values leading:

pKi	SMILES
6.70 to 7.70	O=C(O)CCC(=O)N(C1CC1)C1c2ccccc2N(C(=O)OCC2CC2)C2CCCC21 (racemic) [21i, 4-(cyclopropyl{cis, cis-4-[(cyclopropylmethoxy)carbonyl]-2,3,3a,4,9,9a-hexahydro-1H-cyclopenta[b]quinolin-9-yl}amino)-4-oxobutanoic acid]
7.70 to 8.29	O=C(O)COC(=O)N(C1CC1)[C@@H]1c2ccccc2N(C(=O)c2ccc(OC(F)(F)F)cc2)[C@@H]2CCC[C@@H]21 (racemic) [compound 31, ({Cyclopropyl[cis,cis-4-{[4-(trifluoromethoxy)phenyl]carbonyl}-2,3,3a,4,9,9a-hexahydro-1H-cyclopenta[b]quinolin-9-yl]carbamoyl}oxy)acetic acid]
6.70 to 7.70	O=C(O)CCC(=O)N(C1CC1)C1c2ccccc2N(C(=O)OCc2ccccn2)C2CCCC21 (racemic) [21G, 4-(cyclopropyl{cis, cis-4-[(pyridin-2-ylmethoxy)carbonyl]-2,3,3a,4,9,9a-hexahydro-1H-cyclopenta[b]quinolin-9-yl}amino)-4-oxobutanoic acid]
8.30 to 9.00	O=C(O)CCC(=O)N(C1CC1)[C@@H]1c2ccc(F)cc2N(C(=O)OCc2ccccc2)[C@@H]2CCC[C@@H]21 (racemic) [compound 16, 4-[{cis,cis-4-[(Benzyloxy)carbonyl]-6-fluoro-2,3,3a,4,9,9a-hexahydro-1H-cyclopenta[b]quinolin-9-yl}(cyclopropyl)amino]-4-oxobutanoic acid]
6.70 to 7.70	CCN(C(=O)CCC(=O)O)C1c2ccccc2N(C(=O)c2cccnc2)C2CCCC12 (racemic) [13E, 4-{ethyl[cis,cis-4-(pyridin-3-ylcarbonyl)-2,3,3a,4,9,9a-hexahydro-1H-cyclopenta[b]quinolin-9-yl]amino}-4-oxobutanoic acid]

Reference: patent US8592383B2, “Cycloalkyl-fused tetrahydroquinolines as CRTH2 receptor modulators” (Merck Sharp & Dohme Corp., priority 2011, dated 2013)
